According to ChEMBL document CHEMBL5131478, “3,5-Bis(trifluoromethyl)phenylsulfonamides, a novel pancreatic cancer active lead. Investigation of the terminal aromatic moiety” (Bioorg Med Chem Lett, 2022):

Assays:
MIA PaCa-2 = assay: Growth inhibition of human MIA PaCa-2 cells incubated for 72 hrs by MTT assay; type: functional
HT-29 = assay: Growth inhibition of human HT-29 cells incubated for 72 hrs by MTT assay; type: functional
MCF7 = assay: Growth inhibition of human MCF7 cells incubated for 72 hrs by MTT assay; type: functional
A2780 = assay: Growth inhibition of human A2780 cells incubated for 72 hrs by MTT assay; type: functional
BE(2)-C = assay: Growth inhibition of human BE2C cells incubated for 72 hrs by MTT assay; type: functional
[1] = Growth inhibition of human MCF-10A cells incubated for 72 hrs by MTT assay; type: toxicity, cell-based
ASPC1 = assay: Growth inhibition of human ASPC1 cells incubated for 72 hrs by MTT assay; type: functional
BXPC-3 = assay: Growth inhibition of human BXPC-3 cells incubated for 72 hrs by MTT assay; type: functional
Capan-2 = assay: Growth inhibition of human Capan-2 cells incubated for 72 hrs by MTT assay; type: functional
HPAC = assay: Growth inhibition of human HPAC cells incubated for 72 hrs by MTT assay; type: functional
PANC-1 = assay: Growth inhibition of human PANC-1 cells incubated for 72 hrs by MTT assay; type: functional
NCI-H460 = assay: Growth inhibition of human NCI-H460 cells incubated for 72 hrs by MTT assay; type: functional
A-431 = assay: Growth inhibition of human A-431 cells incubated for 72 hrs by MTT assay; type: functional
DU-145 = assay: Growth inhibition of human DU-145 cells incubated for 72 hrs by MTT assay; type: functional
U-87 MG = assay: Growth inhibition of human U87 cells incubated for 72 hrs by MTT assay; type: functional, U-87MG ATCC
[2] = Growth inhibition of human SJG2 cells incubated for 72 hrs by MTT assay; type: functional; conditions: SJ-G2

Structure (SMILES)	GI50 (MIA PaCa-2)	GI50 (HT-29)	GI50 (MCF7)	GI50 (A2780)	GI50 (BE(2)-C)	GI50 at 72 h [1]	GI50 (ASPC1)	GI50 (BXPC-3)	GI50 (Capan-2)	GI50 (HPAC)	GI50 (PANC-1)	GI50 (NCI-H460)	GI50 (A-431)	GI50 (DU-145)	GI50 (U-87 MG)	GI50 [2]
O=S(=O)(NCCCNCc1ccccc1Cl)c1cc(C(F)(F)F)cc(C(F)(F)F)c1	11000 nM	20000 nM	8800 nM	9300 nM	15000 nM	11000 nM	13000 nM	11000 nM	13000 nM	10000 nM	15000 nM					
O=[N+]([O-])c1ccc(S(=O)(=O)NCCCCCCNCc2ccc(Br)cc2)cc1	9800 nM															
O=S(=O)(NCCCNCc1ccc(-c2ccccc2)cc1)c1cc(C(F)(F)F)cc(C(F)(F)F)c1	2400 nM	2300 nM	1700 nM	2600 nM	2600 nM	2800 nM	2500 nM	1700 nM	2200 nM	2700 nM	2500 nM	2500 nM	2600 nM	2700 nM	2200 nM	2300 nM
O=S(=O)(NCCCCCCNCc1ccc(Br)cc1)c1c(Cl)cc(C(F)(F)F)cc1Cl	5670 nM															
O=S(=O)(NCCCCCCNCc1ccc(Br)cc1)c1cc(Cl)cc(Cl)c1	12000 nM															
O=S(=O)(NCCNCc1ccc(-c2ccccc2)cc1)c1cc(C(F)(F)F)cc(C(F)(F)F)c1	2700 nM	2700 nM	1400 nM	2600 nM	2700 nM	3300 nM	2800 nM	1600 nM	2400 nM	2800 nM	4200 nM	2600 nM	2400 nM	2500 nM	1400 nM	2500 nM
O=S(=O)(NCCCNCc1ccc(Cl)c(Cl)c1)c1cc(C(F)(F)F)cc(C(F)(F)F)c1	2700 nM	4700 nM	2400 nM	1500 nM	2900 nM	3000 nM	2800 nM	1400 nM	1800 nM	2500 nM	5600 nM					
O=S(=O)(NCCCNCc1ccc(Cl)c(C(F)(F)F)c1)c1cc(C(F)(F)F)cc(C(F)(F)F)c1	7400 nM	11000 nM	3500 nM	5900 nM	8600 nM	7900 nM	9600 nM	7800 nM	9100 nM	3000 nM	10000 nM					
CCCCc1ccc(S(=O)(=O)NCCCCCCNCc2ccc(Br)cc2)cc1	5700 nM															
O=S(=O)(NCCCNCc1ccc(C(F)(F)F)cc1)c1cc(C(F)(F)F)cc(C(F)(F)F)c1	2500 nM	2900 nM	1400 nM	2800 nM	2700 nM	3300 nM	2000 nM	1700 nM	2000 nM	2700 nM	3200 nM					
CC(C)(C)c1ccc(S(=O)(=O)NCCCCCCNCc2ccc(Br)cc2)cc1	2970 nM															
COc1ccc(S(=O)(=O)NCCCCCCNCc2ccc(Br)cc2)cc1	13000 nM															
COc1ccc(CNCCCNS(=O)(=O)c2cc(C(F)(F)F)cc(C(F)(F)F)c2)cc1	2500 nM	2900 nM	2500 nM	1700 nM	2800 nM	3100 nM	2800 nM	1300 nM	2400 nM	3000 nM	11000 nM					
O=S(=O)(NCCCNCc1cccc(Cl)c1)c1cc(C(F)(F)F)cc(C(F)(F)F)c1	4400 nM	14000 nM	2600 nM	2200 nM	6900 nM	7000 nM	5900 nM	3800 nM	8000 nM	2700 nM	12000 nM					
CC(C)(C)c1ccc(CNCCNS(=O)(=O)c2cc(C(F)(F)F)cc(C(F)(F)F)c2)cc1	15000 nM	14000 nM	13000 nM	14000 nM	14000 nM	14000 nM	14000 nM	8800 nM	13000 nM	14000 nM	13000 nM	14000 nM	16000 nM	16000 nM	13000 nM	14000 nM
O=S(=O)(NCCCCCCNCc1ccc(Br)cc1)c1ccc(Cl)cc1	5900 nM															
O=S(=O)(NCCCCCCNCc1ccc(Br)cc1)c1ccccc1Cl	13700 nM															
O=S(=O)(NCCCNCc1ccc(Br)cc1)c1cc(C(F)(F)F)cc(C(F)(F)F)c1	2300 nM	2200 nM	1900 nM	2600 nM	2700 nM	3100 nM	2800 nM	1500 nM	2000 nM	2900 nM	2200 nM	2500 nM	2500 nM	2600 nM	2100 nM	2400 nM
O=S(=O)(NCCCNCc1ccccc1)c1cc(C(F)(F)F)cc(C(F)(F)F)c1	11000 nM	15000 nM	3000 nM	4900 nM	12000 nM	13000 nM	13000 nM	13000 nM	14000 nM	3200 nM	16000 nM					

Structure (SMILES)	GI50 (MIA PaCa-2)	GI50 (HT-29)	GI50 (MCF7)	GI50 (A2780)	GI50 (BE(2)-C)	GI50 at 72 h [1]	GI50 (ASPC1)	GI50 (BXPC-3)	GI50 (Capan-2)	GI50 (HPAC)	GI50 (PANC-1)	GI50 (NCI-H460)	GI50 (A-431)	GI50 (DU-145)	GI50 (U-87 MG)	GI50 [2]
O=S(=O)(NCCCCCCNCc1ccc(Br)cc1)c1cc(C(F)(F)F)cc(C(F)(F)F)c1	2970 nM															
CC(C)c1ccc(S(=O)(=O)NCCCCCCNCc2ccc(Br)cc2)cc1	5730 nM															
O=S(=O)(NCCCNCc1ccc(Cl)cc1)c1cc(C(F)(F)F)cc(C(F)(F)F)c1	2800 nM	2800 nM	2400 nM	1800 nM	2900 nM	2300 nM	3000 nM	1600 nM	2700 nM	2800 nM	4900 nM					
O=S(=O)(NCCCCCCNCc1ccc(Br)cc1)c1ccccc1F	13300 nM															
O=S(=O)(NCCCCCCNCc1ccc(Br)cc1)c1ccc2ccsc2c1	6000 nM															
O=S(=O)(NCCCNCC1COc2ccccc2O1)c1cc(C(F)(F)F)cc(C(F)(F)F)c1 (stereo not drawn)	2600 nM	2200 nM	2500 nM	1500 nM	2800 nM	3200 nM	2900 nM	1200 nM	2500 nM	2700 nM	3400 nM					
O=S(=O)(NCCCCCCNCc1ccc(Br)cc1)c1ccc2c(c1)OCC2	13000 nM															
O=[N+]([O-])c1ccccc1S(=O)(=O)NCCCCCCNCc1ccc(Br)cc1	11700 nM															
O=S(=O)(NCCCCCCNCc1ccc(Br)cc1)c1c(Cl)cccc1Cl	14700 nM															
O=S(=O)(NCCCCCCNCc1ccc(Br)cc1)c1ccc(C(F)(F)F)cc1	3830 nM															
COc1cccc(CNCCCNS(=O)(=O)c2cc(C(F)(F)F)cc(C(F)(F)F)c2)c1	3400 nM	10000 nM	2400 nM	1600 nM	4500 nM	6600 nM	3800 nM	1700 nM	6400 nM	2400 nM	10000 nM					
CN(CCCNS(=O)(=O)c1cc(C(F)(F)F)cc(C(F)(F)F)c1)Cc1ccccc1	33000 nM	> 50000 nM	16000 nM	28000 nM	28000 nM	26000 nM	51000 nM	39000 nM	46000 nM	30000 nM	> 50000 nM					
COc1ccccc1CNCCCNS(=O)(=O)c1cc(C(F)(F)F)cc(C(F)(F)F)c1	3100 nM	12000 nM	2600 nM	1500 nM	3600 nM	5500 nM	4600 nM	1700 nM	6000 nM	2400 nM	12000 nM					
O=S(=O)(NCCCCNCc1ccc(Br)cc1)c1cc(C(F)(F)F)cc(C(F)(F)F)c1	2100 nM	1600 nM	1500 nM	2100 nM	2200 nM	3200 nM	2900 nM	1700 nM	1900 nM	2000 nM	2200 nM					
O=S(=O)(NCCCCCCNCc1ccc(Br)cc1)c1cccc(C(F)(F)F)c1	5970 nM															
Cc1ccc(S(=O)(=O)NCCCCCCNCc2ccc(Br)cc2)cc1	12300 nM															
O=S(=O)(NCCNCc1cccc2ccccc12)c1cc(C(F)(F)F)cc(C(F)(F)F)c1	26000 nM	16000 nM	18000 nM	21000 nM	19000 nM	22000 nM	22000 nM	23000 nM	21000 nM	18000 nM	24000 nM					
O=S(=O)(NCCCNCc1cccc2ccccc12)c1cc(C(F)(F)F)cc(C(F)(F)F)c1	2800 nM	2600 nM	1400 nM	3100 nM	2700 nM	3200 nM	21000 nM	2700 nM	2700 nM	2400 nM	2700 nM					
Cc1ccc(C)c(S(=O)(=O)NCCCCCCNCc2ccc(Br)cc2)c1	12000 nM															
